Laboratory results as given in ChEMBL document CHEMBL3399915, “Design, synthesis, and evaluation of phenylglycinols and phenyl amines as agonists of GPR88” (Bioorg Med Chem Lett, 2015).

Assays:
[1] = biological target: T1, G protein-coupled receptor 88 (Homo sapiens, UniProt Q9GZN0); experiment: Agonist activity at GPR88 (unknown origin) transfected in forskolin-stimulated HEK cells assessed as inhibition of cAMP production after 30 mins by HTRF method relative to control; type: functional, cell-based, HEK293
[2] = Protein binding in rat brain by equilibrium dialysis method; type: ADME, tissue-based; conditions: read-out: PB (converted)
[3] = Drug uptake in rat brain at 10 mg/kg, ip after 30 mins; type: ADME, organism-based; parameters: dose 10 mg/kg, route intraperitoneal; conditions: read-out: Drug uptake
[4] = Drug uptake in rat lung at 10 mg/kg, ip after 30 mins; type: ADME, organism-based; parameters: dose 10 mg/kg, route intraperitoneal; conditions: read-out: Drug uptake
[5] = Drug uptake in rat CSF at 10 mg/kg, ip after 30 mins; type: ADME, organism-based, Cerebrospinal fluid; parameters: dose 10 mg/kg, route intraperitoneal; conditions: read-out: Drug uptake
[6] = Plasma concentration in rat at 10 mg/kg, ip after 30 mins; type: ADME, organism-based; parameters: dose 10 mg/kg, route intraperitoneal
[7] = Plasma concentration in rat at 30 mg/kg, ip after 30 mins; type: ADME, organism-based; parameters: dose 30 mg/kg, route intraperitoneal
[8] = Clearance in mouse at 10 mg/kg, ip; type: ADME, organism-based; parameters: dose 10 mg/kg, route intraperitoneal; conditions: in vivo
[9] = Drug uptake in rat CSF at 30 mg/kg, ip after 30 mins; type: ADME, organism-based, Cerebrospinal fluid; parameters: dose 30 mg/kg, route intraperitoneal; conditions: read-out: Drug uptake
[10] = Drug uptake in rat brain at 30 mg/kg, ip after 30 mins; type: ADME, organism-based; parameters: dose 30 mg/kg, route intraperitoneal; conditions: read-out: Drug uptake
[11] = Drug uptake in rat lung at 30 mg/kg, ip after 30 mins; type: ADME, organism-based; parameters: dose 30 mg/kg, route intraperitoneal; conditions: read-out: Drug uptake
[12] = Plasma concentration in mouse at 1 mg/kg, iv after 30 mins; type: ADME, organism-based; parameters: dose 1 mg/kg, route intravenous
[13] = biological target: T1, G protein-coupled receptor 88; experiment: Agonist activity at GPR88 (unknown origin) transfected in forskolin-stimulated HEK cells assessed as [35S]GTPgammaS binding after 60 mins by trilux scintillation counting analysis relative to control; type: functional, cell-based, HEK293
[14] = Clearance in mouse at 1 mg/kg, iv; type: ADME, organism-based; parameters: dose 1 mg/kg, route intravenous; conditions: in vivo
[15] = Drug uptake in mouse brain at 1 mg/kg, iv after 30 mins; type: ADME, organism-based; parameters: dose 1 mg/kg, route intravenous; conditions: read-out: Drug uptake
[16] = Half life in mouse at 1 mg/kg, iv; type: ADME, organism-based; parameters: dose 1 mg/kg, route intravenous; conditions: in vivo
[17] = Ratio of drug level in brain to plasma in mouse at 1 mg/kg, iv after 30 mins; type: ADME, organism-based; parameters: dose 1 mg/kg, route intravenous; conditions: brain and plasma, read-out: BPR
[18] = Plasma protein binding in mouse by equilibrium dialysis method; type: ADME, cell-free; conditions: read-out: PPB (converted)
[19] = Plasma protein binding in rat by equilibrium dialysis method; type: ADME, cell-free; conditions: read-out: PPB (converted)
[20] = Volume of distribution at steady state in mouse at 1 mg/kg, iv; type: ADME, organism-based; parameters: dose 1 mg/kg, route intravenous; conditions: in vivo, read-out: Vdss

T1 sequence (Q9GZN0 whole entry): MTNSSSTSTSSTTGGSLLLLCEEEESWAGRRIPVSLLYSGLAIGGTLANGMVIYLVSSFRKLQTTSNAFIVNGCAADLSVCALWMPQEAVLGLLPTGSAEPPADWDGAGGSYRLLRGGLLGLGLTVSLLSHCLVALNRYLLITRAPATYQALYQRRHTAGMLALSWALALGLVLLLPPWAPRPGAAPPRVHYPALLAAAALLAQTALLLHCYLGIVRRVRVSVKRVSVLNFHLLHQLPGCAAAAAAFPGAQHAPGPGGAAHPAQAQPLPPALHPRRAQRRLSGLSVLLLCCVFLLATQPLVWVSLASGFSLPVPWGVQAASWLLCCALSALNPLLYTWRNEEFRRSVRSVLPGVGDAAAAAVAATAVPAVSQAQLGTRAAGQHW

Question: For CC[C@H](C)COc1ccc([C@H](CO)NC(=O)[C@@H](C)c2ccccc2)c(F)c1, which EC50 [1] is on record?
Answer: Its EC50 is 460 nM.

Question: Which EC50 [1] does the source give for COCC(C)Oc1ccc([C@H](CO)NC(=O)[C@@H](C)c2ccccc2)cc1 (stereo partly drawn) here?
Answer: The EC50 was over 10000 nM.

Question: Which EC50 [1] does the source give for CC[C@H](C)COc1cc(C)c([C@H](CO)NC(=O)[C@@H](C)c2ccccc2)c(C)c1 here?
Answer: Its EC50 is 170 nM.

Question: For O=C(N[C@@H](CO)c1ccc2ccccc2c1)[C@H]1C[C@@H]1c1ccccc1, which EC50 [1] is on record?
Answer: Its EC50 is 2500 nM.

Question: Which results are given for COc1ccc([C@H](CO)NC(=O)[C@@H](C)c2ccccc2)cc1?
Answer: EC50 [1]: 410 nM; fraction unbound [2]: 0.23; concentration at 0.5 h [3]: 450 nM; concentration at 0.5 h [4]: 970 nM; concentration at 0.5 h [5]: 335 nM; concentration at 0.5 h [6]: 1240 nM

Question: With CCCC(C)COc1ccc([C@H](CO)NC(=O)[C@@H](NC)c2ccccc2)cc1 (mixture of isomers) as the compound, how does the EC50 [1] read?
Answer: Its EC50 is 860 nM.

Question: Which EC50 [1] does the source give for CC[C@H](C)COc1ccc([C@H](CO)NC(=O)[C@@H](C)c2ccccc2)cc1 here?
Answer: Its EC50 is 190 nM.

Question: With CCCC(C)COc1ccc([C@H](CO)NC(=O)C(CO)c2ccccc2)cc1 (mixture of isomers) as the compound, how does the EC50 [1] read?
Answer: Its EC50 is 810 nM.

Question: With CCCC(C)COc1ccc([C@H](CO)NC(=O)N(CC)Cc2ccccc2)cc1 (mixture of isomers) as the compound, how does the EC50 [1] read?
Answer: Its EC50 is 1500 nM.

Question: With CCCC(C)COc1ccc([C@H](CN2CCOCC2)NC(=O)[C@@H](C)c2ccccc2)cc1 (mixture of isomers) as the compound, how does the EC50 [1] read?
Answer: Its EC50 is 91 nM.

Question: Which EC50 [1] does the source give for CC(C)COc1ccc([C@H](CO)NC(=O)[C@@H](C)c2ccccc2)cc1 here?
Answer: The EC50 was 500 nM.

Question: For O=C(N[C@@H](CO)c1ccc2ccccc2c1)[C@@H]1C[C@@H]1c1ccccc1, which EC50 [1] is on record?
Answer: The EC50 was over 81000 nM.

Question: Which EC50 [1] does the source give for CC[C@H](C)COc1ccc([C@H](CO)NC(=O)[C@@H](C)c2ccccc2)c(C)c1 here?
Answer: Its EC50 is 160 nM.

Question: Which concentration at 0.5 h [7] does the source give for CC[C@H](C)COc1ccc([C@H](CO)NC(=O)[C@H]2C[C@@H]2c2cccs2)cc1 here?
Answer: The concentration at 0.5 h was 5270 nM.

Question: And the EC50 [1]?
Answer: Its EC50 is over 10000 nM.

Question: And the fraction unbound [2]?
Answer: Its fraction unbound is 0.06.

Question: What about the concentration at 0.5 h [3] of the same compound?
Answer: Its concentration at 0.5 h is 2510 nM.

Question: What about the CL/F [8] of the same compound?
Answer: The CL/F was 144 mL/min/kg.

Question: And the concentration at 0.5 h [9]?
Answer: Its concentration at 0.5 h is 5.7 nM.

Question: What about the concentration at 0.5 h [10] of the same compound?
Answer: Its concentration at 0.5 h is 5540 nM.

Question: What about the concentration at 0.5 h [11] of the same compound?
Answer: Its concentration at 0.5 h is 11500 nM.

Question: And the concentration at 0.5 h [5]?
Answer: Its concentration at 0.5 h is 5.6 nM.

Question: And the concentration at 0.5 h [6]?
Answer: Its concentration at 0.5 h is 2210 nM.

Question: Which EC50 [1] does the source give for CCCC(C)COc1ccc([C@H](CO)NC(=O)Cc2ccccc2)cc1 (mixture of isomers) here?
Answer: The EC50 was over 10000 nM.

Question: With CCCC(C)COc1ccc([C@H](CN2CCN(C)CC2)NC(=O)[C@@H](C)c2ccccc2)cc1 (mixture of isomers) as the compound, how does the EC50 [1] read?
Answer: The EC50 was 90 nM.

Question: Which EC50 [1] does the source give for CCCC(C)COc1ccc([C@H](CN(C)C)NC(=O)[C@@H](C)c2ccccc2)cc1 (mixture of isomers) here?
Answer: The EC50 was 29 nM.

Question: For CC[C@H](C)COc1ccc([C@H](CO)NC(=O)[C@@H](C)c2ccccc2)c(OC)c1, which EC50 [1] is on record?
Answer: The EC50 was 190 nM.

Question: With CC[C@H](C)COc1ccc([C@H](CO)NC(=O)[C@@H](C)c2ccccc2)c(C)n1 as the compound, how does the EC50 [1] read?
Answer: The EC50 was 260 nM.

Question: Which EC50 [1] does the source give for CC(C)COc1ccc([C@H](CO)NC(=O)[C@H]2C[C@@H]2c2cccs2)cc1 here?
Answer: Its EC50 is 690 nM.

Question: What about the fraction unbound [2] of the same compound?
Answer: The fraction unbound was 0.05.

Question: What about the concentration at 0.5 h [3] of the same compound?
Answer: The concentration at 0.5 h was 6850 nM.

Question: And the CL/F [8]?
Answer: The CL/F was 176 mL/min/kg.

Question: And the concentration at 0.5 h [4]?
Answer: The concentration at 0.5 h was 10500 nM.

Question: What about the concentration at 0.5 h [5] of the same compound?
Answer: Its concentration at 0.5 h is 24 nM.

Question: And the concentration at 0.5 h [6]?
Answer: The concentration at 0.5 h was 3240 nM.

Question: What does the source list for CC[C@H](C)COc1ccc([C@H](CN)NC(=O)[C@@H](C)c2ccccc2)cc1?
Answer: EC50 [1]: > 10000 nM; fraction unbound [2]: 0.09; concentration at 0.5 h [3]: 340 nM; CL/F [8]: 66 mL/min/kg; concentration at 0.5 h [4]: 59500 nM; concentration at 0.5 h [5]: 1.1 nM; concentration at 0.5 h [6]: 860 nM

Question: Which EC50 [1] does the source give for O=C(N[C@@H](CO)c1ccc2ccccc2c1)[C@@H]1C[C@H]1c1ccccc1 here?
Answer: The EC50 was over 270000 nM.

Question: Which EC50 [1] does the source give for CCCC(C)COc1ccc([C@H](CO)NC(=O)c2ccccc2)cc1 (mixture of isomers) here?
Answer: The EC50 was 170 nM.

Question: Which EC50 [1] does the source give for CO[C@@H](C)COc1ccc([C@H](CO)NC(=O)[C@@H](C)c2ccccc2)cc1 here?
Answer: Its EC50 is over 10000 nM.

Question: With O=C(N[C@@H](CO)c1ccc2ccccc2c1)[C@H]1C[C@H]1c1ccccc1 as the compound, how does the EC50 [1] read?
Answer: The EC50 was over 110000 nM.

Question: Which EC50 [1] does the source give for C[C@H](C(=O)N[C@@H](CO)c1ccc(OCC2CCO2)cc1)c1ccccc1 (stereo partly drawn) here?
Answer: Its EC50 is over 10000 nM.

Question: Which EC50 [1] does the source give for O=C(NC(CO)c1ccc2ccccc2c1)[C@@H]1C[C@H]1c1ccccc1 (mixture of isomers) here?
Answer: The EC50 was 6000 nM.

Question: With CCCC(C)COc1ccc([C@H](CO)NC(=O)[C@H]2C[C@@H]2c2ccccc2)cc1 (mixture of isomers) as the compound, how does the EC50 [1] read?
Answer: The EC50 was 730 nM.

Question: For CCCC(C)COc1ccc([C@H](CN)NC(=O)[C@@H](C)c2ccccc2)cc1 (mixture of isomers), which EC50 [1] is on record?
Answer: Its EC50 is 110 nM.

Question: For CCCC(C)COc1ccc([C@H](CN2CCCC2)NC(=O)[C@@H](C)c2ccccc2)cc1 (mixture of isomers), which EC50 [1] is on record?
Answer: Its EC50 is 570 nM.

Question: Which results are given for Cc1ccc(-c2ccc([C@H](CO)NC(=O)[C@H]3C[C@@H]3c3cccs3)cc2)cc1?
Answer: concentration at 0.5 h [12]: 290 nM; EC50 [1]: 93 nM; %max ([1]; HEK293): 90%; EC50 [13]: 240 nM; %max ([13]; HEK293): 90%; clearance [14]: 47 mL/min/kg; concentration at 0.5 h [15]: 695 nM; half-life [16]: 36 min; Kp at 0.5 h [17]: 2; fraction unbound [18]: 0.036; fraction unbound [19]: 0.025; Vd [20]: 2.17 L/kg
